Laboratory results: patent US8227492B2, “Sulfoxamine derivatives as factor Xa inhibitors” (Cadila Healthcare Limited, priority 2007, dated 2012)

How the values were obtained:
[1] = target: Factor Xa (Homo sapiens, UniProt P00742); assay: In vitro Factor Xa inhibition, chromogenic assay; type: biochemical; conditions: 0.1 μM compound; for inhibition at 0.1 µM: read-out: % Factor Xa inhibition at 0.1 μM using chromogenic assay
Protocol: (§1) In vitro Factor Xa inhibitory activities were determined as per standard protocols and the results of representative compounds are provided in tables 1 and 2 below as proof of the efficacies of the novel class of compounds disclosed above.

[2] = tested on: human plasma; assay: Prothrombin time doubling concentration (PTCT2) using human plasma; type: biochemical
Protocol: as §1

Factor Xa, sequence (P00742 235-488 limits assumed): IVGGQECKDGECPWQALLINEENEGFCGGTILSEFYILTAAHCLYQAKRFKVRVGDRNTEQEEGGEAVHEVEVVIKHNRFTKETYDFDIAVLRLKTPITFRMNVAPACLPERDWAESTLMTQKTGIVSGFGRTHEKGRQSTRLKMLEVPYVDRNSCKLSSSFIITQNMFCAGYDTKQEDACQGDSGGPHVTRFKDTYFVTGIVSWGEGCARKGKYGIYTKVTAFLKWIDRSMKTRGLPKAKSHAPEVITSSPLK
Factor Xa, sequence (P00742 41-179 partner limits assumed): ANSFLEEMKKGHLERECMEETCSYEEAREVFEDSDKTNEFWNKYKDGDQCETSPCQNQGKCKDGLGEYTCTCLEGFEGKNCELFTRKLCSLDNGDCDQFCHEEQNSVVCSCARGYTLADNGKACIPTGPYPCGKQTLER

| inhibition at 0.1 µM [1] [%] | % Factor Xa inhibition at 0.1 μM using chromogenic assay [1] [%] | Compound | PTCT2 (Conc. required to double the prothrombin time using human plasma) [2] [µM] |
| --- | --- | --- | --- |
| 84 |  | CS(=O)(=O)N=S(C)(=O)c1ccccc1-c1ccc(C(=O)Nc2ccc(Cl)cc2C(=O)Nc2ccc(Cl)cn2)cc1 (stereo not drawn) [Example 14, S-(2-[4-(N-{2-[N-(5-chloro-2-pyridyl)carbamoyl]-4-chlorophenyl}carbamoyl)phenyl]-phenyl)-S-methyl-N-methanesulfonyl sulfoximide] |  |
|  | 81 | S-(2-[4-(N-{2-[N-(5-chloro-2-pyridyl)carbamoyl]-4-chlorophenyl}carbamoyl)phenyl]-phenyl)-S-methyl-N-[2-(4-aminopiperidinyl)-acetyl]sulfoximide [Example 56] |  |
| 79 |  | CCN(CC)CC(=O)N=S(C)(=O)c1ccccc1-c1ccc(C(=O)Nc2ccc(Cl)cc2C(=O)Nc2ccc(Cl)cn2)cc1 (stereo not drawn) [Example 43, S-(2-[4-(N-{2-[N-(5-chloro-2-pyridyl)carbamoyl]-4-chlorophenyl}carbamoyl)phenyl]-phenyl)-S-methyl-N-(2-diethylamino-acetyl)sulfoximide] |  |
| 70 |  | CCN(CC)CC(=O)N=S(C)(=O)c1ccc(C(=O)Nc2ccc(Cl)cc2C(=O)Nc2ccc(Cl)cn2)cc1 (stereo not drawn) [Example 42, S-[4-(N-{2-[N-(5-chloro(2-pyridyl))carbamoyl]-4-chlorophenyl}carbamoyl)phenyl]-S-methyl-N-(2-diethylamino-acetyl)sulfoximide] | 0.7 |
| 79 |  | CS(=O)(=NC(=O)CN1CCCCC1)c1ccccc1-c1ccc(C(=O)Nc2ccc(Cl)cc2C(=O)Nc2ccc(Cl)cn2)cc1 (stereo not drawn) [Example 53, S-(2-[4-(N-{2-[N-(5-chloro-2-pyridyl)carbamoyl]-4-chlorophenyl}carbamoyl)phenyl]-phenyl)-S-methyl-N-[(2-piperidin-1-yl)-acetyl]sulfoximide] |  |
| 95 |  | CN(C)CC(=O)N=S(C)(=O)c1ccccc1-c1ccc(C(=O)Nc2ccc(Cl)cc2C(=O)Nc2ccc(Cl)cn2)cc1 (stereo not drawn) [Example 41, S-(2-[4-(N-{2-[N-(5-chloro-2-pyridyl)carbamoyl]-4-chlorophenyl}carbamoyl)phenyl]-phenyl)-S-methyl-N-(2-dimethylamino-acetyl)sulfoximide] | 1.9 |
| 75 |  | CS(=N)(=O)c1ccc(C(=O)Nc2ccc(Cl)cc2C(=O)Nc2ccc(Cl)cn2)cc1 (stereo not drawn) [Example 1, S-[4-(N-{2-[N-(5-chloro(2-pyridyl))carbamoyl]-4-chlorophenyl}carbamoyl)phenyl]-S-methyl Sulfoximide] |  |
| 74 |  | CS(=O)(=NCCN1CCCC1)c1ccc(C(=O)Nc2ccc(Cl)cc2C(=O)Nc2ccc(Cl)cn2)cc1 (stereo not drawn) [Example 75, S-[4-(N-{2-[N-(5-chloro(2-pyridyl))carbamoyl]-4-chlorophenyl}carbamoyl)phenyl]-S-methyl-N-(2-(pyrrolidin-1-yl)ethyl)sulfoximide] | 0.98 |
| 82 |  | CCN1CCC(C(=O)N=S(C)(=O)c2ccccc2-c2ccc(C(=O)Nc3ccc(Cl)cc3C(=O)Nc3ccc(Cl)cn3)cc2)CC1 (stereo not drawn) [Example 28, S-(2-[4-(N-{2-[N-(5-chloro-2-pyridyl)carbamoyl]-4-chlorophenyl}carbamoyl)phenyl]-phenyl)-S-methyl-N-(1-ethyl-piperidine-4-carbonyl)sulfoximide] |  |
| 95 |  | COc1cc(Cl)cc(C(=O)Nc2ccc(Cl)cn2)c1NC(=O)c1ccc(-c2ccccc2S(C)(=N)=O)cc1 (stereo not drawn) [Example 5, S-(2-[4-(N-{2-[N-(5-chloro-2-pyridyl)carbamoyl]-4-chloro-6-methoxyphenyl}carbamoyl)phenyl]-phenyl)-S-methyl Sulfoximide] | 0.69 |

Continued, compound first:

| Compound | inhibition at 0.1 µM [1] [%] | % Factor Xa inhibition at 0.1 μM using chromogenic assay [1] [%] | PTCT2 (Conc. required to double the prothrombin time using human plasma) [2] [µM] |
| --- | --- | --- | --- |
| CN(C)CCN=S(C)(=O)c1ccc(C(=O)Nc2ccc(Cl)cc2C(=O)Nc2ccc(Cl)cn2)cc1 (stereo not drawn) [Example 76, S-[4-(N-{2-[N-(5-chloro(2-pyridyl))carbamoyl]-4-chlorophenyl}carbamoyl)phenyl]-S-methyl-N-[2-dimethylamino-ethyl]sulfoximide] | 66 |  | 1.14 |
| CS(=O)(=NC(=O)CN1CCCC1)c1ccc(C(=O)Nc2ccc(Cl)cc2C(=O)Nc2ccc(Cl)cn2)cc1 (stereo not drawn) [Example 50, S-[4-(N-{2-[N-(5-chloro(2-pyridyl))carbamoyl]-4-chlorophenyl}carbamoyl)phenyl]-S-methyl-N-[(2-pyrrolidin-1-yl)-acetyl]sulfoximide] | 64 |  | 0.68 |
| CS(=O)(=NC(=O)C1CCNCC1)c1ccccc1-c1ccc(C(=O)Nc2ccc(Cl)cc2C(=O)Nc2ccc(Cl)cn2)cc1 (stereo not drawn) [Example 26, S-(2-[4-(N-{2-[N-(5-chloro-2-pyridyl)carbamoyl]-4-chlorophenyl}carbamoyl)phenyl]-phenyl)-S-methyl-N-(4-piperidinylcarbonyl)sulfoximide] | 69 |  |  |
| CS(=O)(=NC(=O)c1ccncc1)c1ccccc1-c1ccc(C(=O)Nc2ccc(Cl)cc2C(=O)Nc2ccc(Cl)cn2)cc1 (stereo not drawn) [Example 24, S-(2-[4-(N-{2-[N-(5-chloro-2-pyridyl)carbamoyl]-4-chlorophenyl}carbamoyl)phenyl]-phenyl)-S-methyl-N-(4-pyridylcarbonyl)sulfoximide] | 85 |  |  |
| CS(=O)(=NC(=O)CN1CCCCC1)c1ccc(C(=O)Nc2ccc(Cl)cc2C(=O)Nc2ccc(Cl)cn2)cc1 (stereo not drawn) [Example 52, S-[4-(N-{2-[N-(5-chloro(2-pyridyl))carbamoyl]-4-chlorophenyl}carbamoyl)phenyl]-S-methyl-N-[(2-piperidin-1-yl)-acetyl]sulfoximide] | 60 |  |  |
| CS(=N)(=O)c1ccccc1-c1ccc(C(=O)Nc2ccc(Cl)cc2C(=O)Nc2ccc(Cl)cn2)cc1 (stereo not drawn) [Example 4, S-(2-[4-(N-{2-[N-(5-chloro-2-pyridyl)carbamoyl]-4-chlorophenyl}carbamoyl)phenyl]-phenyl)-S-methyl sulfoximide] | 93 |  | 4.1 |
| COc1ccc(NC(=O)c2ccc(S(C)(=O)=NC(=O)CN(C)C)cc2)c(C(=O)Nc2ccc(Cl)cn2)c1 (stereo not drawn) [Example 40, S-[4-(N-{2-[N-(5-chloro(2-pyridyl))carbamoyl]-4-methoxyphenyl}carbamoyl)phenyl]-S-methyl-N-(2-dimethylamino-acetyl)sulfoximide] | 56 |  | 1.2 |
| CCN(CC)CCN=S(C)(=O)c1ccc(C(=O)Nc2ccc(Cl)cc2C(=O)Nc2ccc(Cl)cn2)cc1 (stereo not drawn) [Example 74, S-[4-(N-{2-[N-(5-chloro(2-pyridyl))carbamoyl]-4-chlorophenyl}carbamoyl)phenyl]-S-methyl-N-(2-(diethylamino)ethyl)sulfoximide] | 77 |  | 1.23 |
